Assay results reported in patent publication US20250198902A1, “METHOD OF ANALYSING THE MOTIONAL ACTIVITY OF PARTICLES” (RESISTELL AG, priority 2022, published 2025).

Tested on: human colon cancer cell line SW480
Test: nanomotion drug sensitivity testing on cancer cells attached to microcantilever
Type: cell-based
Settings: SW480 cells in DMEM containing 10% FCS; 32 μM doxorubicin in Drug phase vs second Medium phase
Description: In particular, these figures show the variance of the deflection of a microcantilever with attached human colon cancer cell line SW480 measured in cell culture medium and subsequent exposure to inhibitory concentrations of the drug doxorubicin (FIG. 25a) and the variance for cells kept in cell culture medium (FIG. 25b). The doxorubicin susceptible SW480 was cultured under standard laboratory conditions (i.e., cell culture medium (Dulbecco's Modified Eagle Medium (DMEM) containing 10% heat-inactivated fetal calf serum (FCS), 37° C., 5% CO2) in cell culture flasks. In preparation of nanomotion experiments, cells were detached, collected in cell culture medium, and washed in DMEM containing 10% FCS. The cell suspension was used for the attachment to the cantilever, and all nanomotion measurements with the device were performed in DMEM containing 10% FCS. The colon cancer cells were attached to the cantilever. Three phases of signal recording were performed: (i) Blank phase, where the deflections of the bare cantilevers are measured, (ii) the Medium phase, where the deflections of the cantilever with attached SW480 were measured followed by (iii) the Drug phase, where the deflections of the cantilever with attached SW480 after exposure to a drug were recorded or a second Medium phase without doxorubicin. […]

With `COc1cccc2c1C(=O)c1c(O)c3c(c(O)c1C2=O)C[C@@](O)(C(=O)CO)C[C@@H]3O[C@H]1C[C@H](N)[C@H](O)[C@H](C)O1` [doxorubicin] the “variance of the nanomotion signal (cantilever deflection) after drug exposure” value was “decrease in the variance after exposure to the drug is prominent”.
